This note sets out measurements from paper PMC10235067, “Increased renal elimination of endogenous and synthetic pyrimidine nucleosides in concentrative nucleoside transporter 1 deficient mice” (Nature Communications, 2023).

Data set [1] can be described thus: Gemcitabine plasma pharmacokinetics in Slc28a1+/+ and Slc28a1-/- mice. The conditions noted are these: Gem-TP in plasma, single intravenous dose of gemcitabine 50mg/kg, individual mice.
Method: To collect blood, a 5 mm lancet was used to apply pressure to the submandibular vein and release blood flow. For retro-orbital collection, mice were anesthetized with 3% isoflurane in oxygen, and the blood was collected directly into heparinized capillary tubes by applying slight pressure to the medial canthus of the eye. Cardiac puncture was performed as the final collection method by first euthanizing the mice in a CO2 chamber and immediately performing posterior cardiac puncture by inserting a 27 G needle with a 1 ml syringe attachment into the heart. Once blood collection was completed, gentle pressure was applied to the blood collection area using gauze to stop the bleeding. Thirty microliters of blood was collected into heparinized capillary tubes at each time point, transferred into prelabeled 0.5 ml microcentrifuge tubes containing THU (10 µg/ml; final concentration), and immediately processed and snap-frozen following procedures outlined in the “Gemcitabine plasma pharmacokinetics” methods section.
Gemcitabine and dFdU plasma concentrations were measured using a modified version of our previously published UHPLC–MS/MS method for nucleosides[74] […] Noncompartmental pharmacokinetic parameters (Cmax, Tmax, AUC, CL, T1/2, etc.) were calculated using WinNonlin 6.2 software (Pharsight; Mountain View, CA). […] The Cmax and Tmax were obtained from the concentration-time curve. The AUC was calculated according to the linear trapezoidal rule up to the last time point with a measurable concentration of the analyte of interest. Significant differences between Slc28a1^+/+ and Slc28a1^−/− mouse pharmacokinetic parameters (p < 0.05) were evaluated with an unpaired two-sided Student’s t-test.
The resulting supernatant was evaporated to dryness in a SpeedVac, and the remaining residue was reconstituted in mobile phase A for subsequent analysis. […] Subsequent processing was identical to that for the plasma and urine samples.
Briefly, the analysis was performed on an Imtakt Schzero SM C18 column, 2.1 × 100 mm, 3.0 µm particle size. The eluents used consisted of mobile phase A consisting of 50 mM ammonium formate:50 mM ammonium hydroxide (9:1, v/v) (pH = 8.6) and mobile phase B consisting of 50 mM ammonium formate:50 mM ammonium hydroxide (9:1, v/v):ACN (80:20, v/v) (pH = 8.6). […] The injection volume was 10 μL, and the autosampler temperature was set at 4 °C throughout the analysis.
The Waters Triple Quadrupole Mass Spectrometer with an ESI source was operated in negative and positive ion mode at a spray voltage of 2.5 kV, capillary temperature of 150 °C, and vaporizer temperature of 250 °C. Compound optimization was performed manually using the MassLynx 4.1 Software AutoTune Wizard (Waters, Milford, MA) by infusion into the mass spectrometer using a T-connector. […] Analyze concentrations were determined and analyzed using MassLynx Mass Spectrometry Software (Waters; Milford, MA).

Several values for one entry are separate records, joined by “and”; a condition that tells them apart may be missing. Equal values may be shown once.

Method for CNT1: Linearity was established for analytes over the concentration ranges observed and the lower limit of quantification of the LC–MS/MS assay was approximately 0.1 ng/ml for each analyte (Fig. S2).
Standard solutions of all nucleotide targets were serially diluted to generate calibration solutions at concentrations of 0.0, 0.0001, 0.001, 0.01, 0.1, 1.0, and 10 µg/ml. Urine samples were prepared by adding 20 µL of urine solution to 80 µL of 50:50 H2O:MeOH containing internal standard, vortexing and centrifuging at 20,000 × g; then, 50 µL aliquots were placed into glass vials, dried in a SpeedVac and reconstituted in 5% MeOH with 0.1% formic acid for injection.
Samples were quantified using a heated electrospray ionization source (HESI) on a Thermo Scientific TQS Quantiva triple quadrupole mass spectrometer, and separation was achieved using a Thermo Scientific Ultimate 3000 HPLC equipped with an Agilent 120 SB-C18 reversed-phase column (2 × 100 mm, 2.7 µm particle size) maintained at 40 °C. […] For all experiments, the capillary voltage was set to 4.5 kV with a capillary temperature of 350 °C, a vaporizer temperature of 100 °C, a sheath gas flow of 12, an auxiliary gas flow of 13, and a 1.6 sweep gas. For selected reaction monitoring (SRM) mode, Q1 and Q3 were set to 0.7 full width at half maximum (FWHM) resolution, a cycle time of 0.8 s, and a CID gas pressure of 1.5 mTorr.

Regarding `O=c1cc[nH]c(=O)[nH]1` [Uracil], the “fold increase of content in urine of Slc28a1-/- mice” value with CNT1 (Slc28a1-/- vs Slc28a1+/+, urine collected over 12 h starvation, 8-week-old mice, n = 6) worked out at 4.6 fold.
Usually Cmax stands for the peak of the concentration-time curve. One may read the Tmax as the time from dosing to the highest level. Take `Nc1ccn([C@@H]2O[C@H](COP(=O)(O)OP(=O)(O)OP(=O)(O)O)[C@@H](O)C2(F)F)c(=O)n1` [Gem-TP]: in data set [1] (KO (Slc28a1-/-) mice), the AUCINF_D_obs is 509.381 kg·ng·min/mL/mg and 272.158 kg·ng·min/mL/mg and 1500.18 kg·ng·min/mL/mg and 597.23 kg·ng·min/mL/mg and 1529.97 kg·ng·min/mL/mg and 1749.53 kg·ng·min/mL/mg; the AUCINF_D_pred was 476.443 kg·ng·min/mL/mg and 251.621 kg·ng·min/mL/mg and 1436.01 kg·ng·min/mL/mg and 561.179 kg·ng·min/mL/mg and 1459.25 kg·ng·min/mL/mg and 1679.11 kg·ng·min/mL/mg; the AUCINF_obs was 25469 ng·min/mL and 13607.9 ng·min/mL and 75008.8 ng·min/mL and 29861.5 ng·min/mL and 76498.5 ng·min/mL and 87476.7 ng·min/mL; the AUCINF_pred is 23822.1 ng·min/mL and 12581.1 ng·min/mL and 71800.6 ng·min/mL and 28058.9 ng·min/mL and 72962.4 ng·min/mL and 83955.6 ng·min/mL. In data set [1] (KO (Slc28a1-/-) mice), the AUC_%Back_Ext_obs was 0.5829% and 5.828% and 0.4312% and 2.002% and 0.5682% and 0.06111%; the AUC_%Back_Ext_pred is 0.6232% and 6.304% and 0.4505% and 2.131% and 0.5957% and 0.06367%; the AUC_%Extrap_obs was 67.4874% and 53.7747% and 79.3116% and 67.9349% and 78.2847% and 81.1285%; the AUC_%Extrap_pred is 65.2397% and 50.0019% and 78.3872% and 65.875% and 77.2323% and 80.3371%. In data set [1] (KO (Slc28a1-/-) mice), the AUCall is 8280.65 ng·min/mL and 6290.29 ng·min/mL and 15518.1 ng·min/mL and 9575.11 ng·min/mL and 16611.9 ng·min/mL and 16508.1 ng·min/mL; the AUClast was 8280.65 ng·min/mL and 6290.29 ng·min/mL and 15518.1 ng·min/mL and 9575.11 ng·min/mL and 16611.9 ng·min/mL and 16508.1 ng·min/mL; the AUClast_D was 165.613 kg·ng·min/mL/mg and 125.806 kg·ng·min/mL/mg and 310.363 kg·ng·min/mL/mg and 191.502 kg·ng·min/mL/mg and 332.237 kg·ng·min/mL/mg and 330.163 kg·ng·min/mL/mg; the AUMCINF_obs was 14271006 min*min*ng/mL and 5009676 min*min*ng/mL and 73111057 min*min*ng/mL and 17625971 min*min*ng/mL and 70582595 min*min*ng/mL and 93013834 min*min*ng/mL. In data set [1] (KO (Slc28a1-/-) mice), the AUMCINF_pred is 12992303 min*min*ng/mL and 4388328 min*min*ng/mL and 69264936 min*min*ng/mL and 16149841 min*min*ng/mL and 66527378 min*min*ng/mL and 88496254 min*min*ng/mL; the AUMC_%Extrap_obs was 93.5147% and 88.3871% and 97.5522% and 94.251% and 97.3007% and 97.8918%; the AUMC_%Extrap_pred is 92.8764% and 86.7428% and 97.4162% and 93.7255% and 97.1361% and 97.7841%; the AUMClast is 925521 min*min*ng/mL and 581771 min*min*ng/mL and 1789646 min*min*ng/mL and 1013321 min*min*ng/mL and 1905271 min*min*ng/mL and 1960946 min*min*ng/mL. For the same compound, in data set [1] (KO (Slc28a1-/-) mice), the Cl_pred is 2098.89 mL/min/kg and 3974.23 mL/min/kg and 696.373 mL/min/kg and 1781.96 mL/min/kg and 685.285 mL/min/kg and 595.553 mL/min/kg; the Clast is 32.0426 ng/mL and 20.0426 ng/mL and 62.0426 ng/mL and 35.0426 ng/mL and 66.0426 ng/mL and 68.0426 ng/mL; the Clast_pred was 28.9724 ng/mL and 17.2301 ng/mL and 58.6968 ng/mL and 31.9288 ng/mL and 62.1429 ng/mL and 64.6666 ng/mL; the Cmax is 49.2745 ng/mL and 91.6911 ng/mL and 79.2745 ng/mL and 88.6911 ng/mL and 85.6911 ng/mL and 85.2745 ng/mL. Further, in data set [1] (KO (Slc28a1-/-) mice), the Cmax_D was 0.9855 kg·ng/mL/mg and 1.834 kg·ng/mL/mg and 1.585 kg·ng/mL/mg and 1.774 kg·ng/mL/mg and 1.714 kg·ng/mL/mg and 1.705 kg·ng/mL/mg; the HL_Lambda_z is 371.821 min and 253.07 min and 664.637 min and 401.268 min and 628.538 min and 722.954 min; the Lambda_z is 0.001864 min⁻¹ and 0.002739 min⁻¹ and 0.001043 min⁻¹ and 0.001727 min⁻¹ and 0.001103 min⁻¹ and 0.0009588 min⁻¹; the MRTINF_obs was 9.33878 h and 6.13575 h and 16.24 h and 9.83763 h and 15.3778 h and 17.722 h. In data set [1] (KO (Slc28a1-/-) mice), the MRTINF_pred was 9.0898 h and 5.81342 h and 16.0781 h and 9.59282 h and 15.1967 h and 17.568 h; the MRTlast is 1.86282 h and 1.54145 h and 1.9221 h and 1.76382 h and 1.91155 h and 1.97978 h; the Tlast came to 240 min; the Tmax is 0.167 h and 0.083 h. Further, in data set [1] (KO (Slc28a1-/-) mice), the Vss_obs was 1100.017 L/kg and 1352.688 L/kg and 649.724 L/kg and 988.326 L/kg and 603.062 L/kg and 607.76 L/kg; the Vss_pred was 1144.708 L/kg and 1386.23 L/kg and 671.779 L/kg and 1025.643 L/kg and 624.846 L/kg and 627.762 L/kg; the Vz_obs was 1053.09 L/kg and 1341.512 L/kg and 639.17 L/kg and 969.32 L/kg and 592.684 L/kg and 596.16 L/kg; the Vz_pred is 1125.894 L/kg and 1451.004 L/kg and 667.729 L/kg and 1031.591 L/kg and 621.408 L/kg and 621.163 L/kg. Also, in data set [1] (WT (Slc28a1+/+) mice), the AUCINF_D_obs is 627.983 kg·ng·min/mL/mg and 293.244 kg·ng·min/mL/mg and 2095.28 kg·ng·min/mL/mg and 746.583 kg·ng·min/mL/mg and 2357.3 kg·ng·min/mL/mg and 2481.13 kg·ng·min/mL/mg; the AUCINF_D_pred was 611.177 kg·ng·min/mL/mg and 283.996 kg·ng·min/mL/mg and 2059.29 kg·ng·min/mL/mg and 727.87 kg·ng·min/mL/mg and 2318.74 kg·ng·min/mL/mg and 2441.28 kg·ng·min/mL/mg; the AUCINF_obs is 31399.2 ng·min/mL and 14662.2 ng·min/mL and 104764 ng·min/mL and 37329.2 ng·min/mL and 117865 ng·min/mL and 124056 ng·min/mL; the AUCINF_pred was 30558.9 ng·min/mL and 14199.8 ng·min/mL and 102964 ng·min/mL and 36393.5 ng·min/mL and 115937 ng·min/mL and 122064 ng·min/mL. In data set [1] (WT (Slc28a1+/+) mice), the AUC_%Back_Ext_obs is 0.6002% and 4.658% and 0.3469% and 1.514% and 0.3975% and 0.07533%; the AUC_%Back_Ext_pred was 0.6167% and 4.81% and 0.353% and 1.5528% and 0.4041% and 0.07656%; the AUC_%Extrap_obs was 74.9814% and 61.0207% and 85.5932% and 75.6831% and 86.2719% and 87.0356%; the AUC_%Extrap_pred was 74.2934% and 59.7514% and 85.3414% and 75.0579% and 86.0436% and 86.824%. In addition, in data set [1] (WT (Slc28a1+/+) mice), the AUCall was 7855.65 ng·min/mL and 5715.22 ng·min/mL and 15093.1 ng·min/mL and 9077.31 ng·min/mL and 16180.6 ng·min/mL and 16083.1 ng·min/mL; the AUClast was 7855.65 ng·min/mL and 5715.22 ng·min/mL and 15093.1 ng·min/mL and 9077.31 ng·min/mL and 16180.6 ng·min/mL and 16083.1 ng·min/mL; the AUClast_D is 157.113 kg·ng·min/mL/mg and 114.304 kg·ng·min/mL/mg and 301.863 kg·ng·min/mL/mg and 181.546 kg·ng·min/mL/mg and 323.613 kg·ng·min/mL/mg and 321.663 kg·ng·min/mL/mg; the AUMCINF_obs was 25618307 min*min*ng/mL and 7382666 min*min*ng/mL and 159455048 min*min*ng/mL and 32660009 min*min*ng/mL and 190278277 min*min*ng/mL and 207071348 min*min*ng/mL. Besides, in data set [1] (WT (Slc28a1+/+) mice), the AUMCINF_pred is 24735428 min*min*ng/mL and 7028934 min*min*ng/mL and 156289942 min*min*ng/mL and 31610468 min*min*ng/mL and 186705642 min*min*ng/mL and 203285848 min*min*ng/mL; the AUMC_%Extrap_obs was 96.5565% and 92.707% and 98.9048% and 97.0301% and 99.0215% and 99.0739%; the AUMC_%Extrap_pred is 96.4336% and 92.3399% and 98.8827% and 96.9315% and 99.0028% and 99.0567%; the AUMClast is 882171 min*min*ng/mL and 538421 min*min*ng/mL and 1746296 min*min*ng/mL and 969971 min*min*ng/mL and 1861921 min*min*ng/mL and 1917596 min*min*ng/mL. Also, in data set [1] (WT (Slc28a1+/+) mice), the Cl_pred was 1636.19 mL/min/kg and 3521.18 mL/min/kg and 485.605 mL/min/kg and 1373.87 mL/min/kg and 431.268 mL/min/kg and 409.621 mL/min/kg; the Clast was 29.0426 ng/mL and 17.0426 ng/mL and 59.0426 ng/mL and 32.0426 ng/mL and 63.0426 ng/mL and 65.0426 ng/mL; the Clast_pred is 28.006 ng/mL and 16.1618 ng/mL and 57.8576 ng/mL and 30.9814 ng/mL and 61.8472 ng/mL and 63.8424 ng/mL; the Cmax is 69.2745 ng/mL and 99.6911 ng/mL and 99.2745 ng/mL and 96.6911 ng/mL and 103.275 ng/mL and 105.275 ng/mL. In data set [1] (WT (Slc28a1+/+) mice), the Cmax_D is 1.385 kg·ng/mL/mg and 1.994 kg·ng/mL/mg and 1.985 kg·ng/mL/mg and 1.934 kg·ng/mL/mg and 2.065 kg·ng/mL/mg and 2.105 kg·ng/mL/mg; the HL_Lambda_z was 561.904 min and 363.887 min and 1052.72 min and 611.146 min and 1118.01 min and 1150.65 min; the Lambda_z is 0.001234 min⁻¹ and 0.001905 min⁻¹ and 0.0006584 min⁻¹ and 0.001134 min⁻¹ and 0.00062 min⁻¹ and 0.0006024 min⁻¹; the MRTINF_obs is 13.5982 h and 8.39195 h and 25.3673 h and 14.582 h and 26.9062 h and 27.8195 h. Besides, in data set [1] (WT (Slc28a1+/+) mice), the MRTINF_pred was 13.4906 h and 8.25005 h and 25.298 h and 14.4762 h and 26.84 h and 27.757 h; the MRTlast was 1.87163 h and 1.57014 h and 1.92835 h and 1.78095 h and 1.91785 h and 1.9872 h; the Tlast is 240 min; the Tmax was 0.167 h and 0.083 h. Moreover, in data set [1] (WT (Slc28a1+/+) mice), the Vss_obs is 1299.224 L/kg and 1717.058 L/kg and 726.413 L/kg and 1171.898 L/kg and 684.839 L/kg and 672.746 L/kg; the Vss_pred is 1324.388 L/kg and 1742.993 L/kg and 737.1 L/kg and 1193.31 L/kg and 694.517 L/kg and 682.183 L/kg; the Vz_obs was 1290.887 L/kg and 1790.244 L/kg and 724.843 L/kg and 1180.977 L/kg and 684.235 L/kg and 669.067 L/kg; the Vz_pred was 1326.384 L/kg and 1848.542 L/kg and 737.512 L/kg and 1211.34 L/kg and 695.614 L/kg and 679.987 L/kg.
In the case of `Nc1ncnc2c1ncn2[C@@H]1O[C@H](CO)[C@@H](O)[C@H]1O` [Adenosine], in the data set with CNT1 (12 h starvation), the “concentration in urine, Slc28a1+/+ vs Slc28a1-/-” value is “not significantly different”.
